Data: patent US8288549B2, “Glycine B antagonist” (Merz Pharma GmbH & Co. KGaA, priority 2008, dated 2012)

Assays:
[1] = target: T1, glycine binding pocket of the NMDA receptor (Rattus norvegicus, UniProt P35439); assay: [3H]-MDL-105,519 displacement studies on rat cortical membranes; conditions: displacement of 2 nM [3H]-MDL-105,519, rat cortical membranes, 4° C., 1 h; read-out: NMDA-MDL 105519-r-CTX - IC50
T1 construct: The cortex is dissected out and processed as described by Parsons, et al; from tissue; host or cells: rat cerebral cortex membranes (male Sprague-Dawley)
Protocol: [^3]MDL-105,519 Displacement Studies
For the evaluation of the binding affinity of the test compounds on the glycine binding pocket of the NMDA receptor, [^3H]-MDL-105,519 (GE Healthcare, Freiburg, Germany) displacement studies are performed using a 96-well plate robotic platform. MDL-105,519 (Baron et al., J Pharmacol Exp Ther 1996, 279(1), 62-68; Baron et al., European Journal of Pharmacology, 1997, 323(2-3), 181-192; Hoffner & Wanner, Neuroscience Letters, 1997, 226(2), 79-82) is a selective, high affinity antagonist at the NMDA receptor glycine site.
Tissue preparation is performed according to Foster & Wong (Br J Pharmacol, 1987, 91, 403-409) with some modifications. Anaesthetised male Sprague-Dawley rats (200-250 g, Janvier, Le Genest-Isle, France) are decapitated and their brains removed rapidly. The cortex is dissected out and processed as described by Parsons, et al. (J Pharmacol Exp Ther, 1997, 283(3), 1264-1275). For isolation of the cell membranes, the cortices are homogenized in 20 volumes of ice-cold 0.32 M sucrose (Sigma-Aldrich, Taufkirchen, Germany) using a glass-Teflon homogenizer. The homogenate is centrifuged at 1000×g for 10 minutes, the pellet is discarded and the supernatant centrifuged at 20,000×g for 20 minutes. The resulting pellet is re-suspended in 20 volumes of distilled water and centrifuged for 20 minutes at 8000×g. The supernatant and the buffy coat are then centrifuged three times (48,000×g for 20 minutes) in the presence of 50 mM Tris-HCl, pH 8.0 (assay buffer). All centrifugation steps are carried out at 4° C. After resuspension in 5 volumes of 50 mM Tris-HCl, pH 7.5, the membrane suspension is frozen rapidly at −80° C. On the day of assay, the membranes are thawed and washed four times by resuspension in 50 mM Tris-HCl, pH 7.5, and centrifugation at 48,000×g for 20 minutes. The final pellet is suspended in assay buffer. The amount of protein in the final membrane preparation is determined according to the method of Lowry, et al. (J. Biological Chemistry, 1951, 193, 256-275) with some modifications (Hartree, Analytical Biochemistry, 1972, 48, 422-427). The final protein concentration used for our studies is 400 μg/ml.
A robotic system designed for binding assays (Tecan Deutschland GmbH, Crailsheim, Germany) is loaded with the membrane solution, solutions for bound control (buffer/DMSO 20%), unlabeled glycine (1 mM) for evaluation of non-specific binding, all compounds to be tested (at 20-fold concentrations), radioligand and respective 96-well plates.
Before performing displacement studies, saturation experiments are performed to determine the equilibrium dissociation constant (Kd) of [^3H]-MDL-105,519, which is a parameter for the affinity of the radioligand to the binding site. The protein/receptor concentration is held constant whereas the amount of specific bound radioligand is determined using increasing concentrations of ligand.
On the basis of the saturation experiments, a final [^3H]-MDL-105,519 concentration of 2 nM is selected. Firstly, the assay plates are loaded with membrane solution and are shaken at 4° C. The mother plates are then prepared by pipetting the compounds (n=4) into assay buffer/20% DMSO to obtain the desired final concentrations. After transferring radioligand into the assay plates, the compounds are added (including the bound and the non-specific binding control). The final DMSO concentration is 1%. The assay plates are incubated and shaken at 4° C. for 1 h, before the mixture is exhausted as rapidly as possible via a vacuum manifold using the Multiscreen HTS glass fibre (type B) filter plates (Millipore, Schwalbach, Germany) under a constant vacuum of 450 mbar. The membranes are washed four times with cold assay buffer (100 μL). […]

[2] = target: T2, NMDA receptor glycine B site (Rattus norvegicus, UniProt P35439); assay: Whole cell patch-clamp recordings in cultured rat hippocampal neurons (NMDA/D-Serine evoked currents); format: cell-based; conditions: NMDA (200 μM) and D-Serine (1 μM), holding potential −70 mV, read-out: NMDA-PC-r-HIC-NAM - IC50
T2 construct: Hippocampi are then isolated from the brains of at least 8 embryos after decapitation; endogenous in cells; host or cells: primary cultured hippocampal neurons from E20 Sprague-Dawley rat embryos, 11-15 DIV
Protocol: Antagonistic potencies of the test compounds are functionally evaluated using electrophysiological whole cell patch-clamp recordings and/or fluorometric intracellular Ca^2+-imaging (FLIPR) screens.
Cell preparation is performed as described by Parsons, et al. (Neuropharmacology, 1998, 37(6), 719-727). The female Sprague-Dawley rat is anaesthetised by placing in a saturated CO2-euthanasia chamber under further quiet CO2-influx. Under these conditions the rat loses consciousness after a few seconds and is then sacrificed by cervical dislocation. After opening the abdominal cavity, embryos (E20) are removed and stored in ice cold Ca^2+- and Mg^2+-free Hank's Buffered Salt Solution (pH 7.3), containing 4 g/l glucose (HBSS-CMF). Hippocampi are then isolated from the brains of at least 8 embryos after decapitation, transferred into ice cold HBSS-CMF and washed 3 to 4 times.
Hippocampi are pre-incubated for 8 min with a 0.66% trypsin (Sigma-Aldrich) and 0.1% (20 U/ml) DNAase solution (Sigma-Aldrich) in Ca^2+-free Phosphate Buffered Saline (PBS-CF) and washed 3 times with HBSS-CMF. Cells are then mechanically dissociated by trituration in a PBS-CF solution containing 0.05% (10 U/ml) DNAase and 0.3% of the trypsin inhibitor ovomucoid (all from Sigma-Aldrich). The cells are then centrifuged at 180×g for 10 minutes, and the cell pellet re-suspended in basal Minimum essential medium (MEM, Invitrogen, Karlsruhe, Germany), again carefully triturated to ensure maximal dissociation and finally plated in the flexiPERM inserts (Thermo Fisher Scientific, Langenselbold, Germany) at a density of 15×10^3 cells/cm^2 (0.5 ml/insert) onto poly-DL-ornithine (Sigma) and mouse laminin (Invitrogen) pre-coated plastic petri dishes. After 1 hour the cells become attached to the bottom of the dish and the inserts may be removed. The cells are then nourished with 2 ml MEM supplemented with 5% foetal calf serum (FCS) and 5% horse serum and incubated at 37° C. with 95% air and 5% CO2 at 95% humidity. After 4 days in vitro (DIV) further glial mitosis is inhibited by adding 10 μl of AraC (5 μM endconcentration). The medium is completely exchanged after an additional 2 DIV and again, but only partly (50%), after 8 DIV. The cells are used for electrophysiological recordings after 11-15 DIV.
Cells are visualised using an inverted microscope and selected for patching based upon their position and morphology. Voltage clamp recordings are made in the whole cell configuration of the patch clamp technique at a holding potential of −70 mV with the aid of an EPC-10 amplifier in combination with pipette manipulator. Patch clamp pipettes are pulled from borosilicate glass using a horizontal puller (P-97 Puller, Sutter Instruments, USA) and, when filled with intracellular solution, have resistances of 1-4 MΩ.
Solutions are delivered via a home-made gravity driven very fast perfusion system (<10 ms) including valves to switch flow on and off in combination with a stepper motor-driven double-barreled theta glass application pipette in order to expose cells to either agonist-free or agonist-containing solutions in presence or absence of antagonist.
The intracellular solution used consists of: 120 mM CsCl, 10 mM EGTA, 1 mM MgCl2, 200 μM CaCl2, 10 mM glucose and 22 mM tetraethyl ammonium chloride (TEA-CL). The corresponding extracellular bath solution contains: 140 mM NaCl, 3 mM KCl, 10 mM glucose, 10 mM HEPES, 1.5 mM CaCl2 and 4.5 mM sucrose (all from Sigma-Aldrich) pH 7.3, and is supplemented with 0.3 μM tetrodotoxin (TTX, Tocris, Bristol, U.K.) to block voltage-activated sodium channels and 0.25 μM bicuculline (Sigma-Aldrich) to block GABAA receptors. […]

| SMILES | IC50 [1] | IC50 [2] | melting point |
| --- | --- | --- | --- |
| O=C(O)c1cc2cc(Cl)ccc2nc1N[C@@H](Cc1ccc(Oc2nc3ccc(Cl)cc3cc2C(=O)O)cc1)C(=O)O [Example 8, 2-{(S)-1-Carboxy-2-[4-(3-carboxy-6-chloroquinolin-2-yloxy)-phenyl]-ethylamino}-6-chloro-quinoline-3-carboxylic acid] | 0.45 µM | – | – |
| O=C(O)c1cc2cc(Cl)ccc2nc1N[C@@H](Cc1ccc(Oc2ccncc2Br)cc1)C(=O)O [Example 144, 2-{(S)-2-[4-(3-Bromo-pyridin-4-yloxy)-phenyl]-1-carboxy-ethylamino}-6-chloro-quinoline-3-carboxylic acid] | 0.84 µM | – | – |
| O=C(O)c1cc2cc(Cl)ccc2nc1N[C@@H](Cc1ccc(Oc2ccc3cc(Br)cnc3n2)cc1)C(=O)O [Example 147, 2-{(S)-2-[4-(6-Bromo-[1,8]naphthyridin-2-yloxy)-phenyl]-1-carboxy-ethylamino}-6-chloro-quinoline-3-carboxylic acid] | 0.29 µM | – | – |
| O=C(O)c1cc2cc(Cl)ccc2nc1NC(C(=O)O)C(C(=O)O)c1ccccc1 (stereo not shown) [Example 79, 2-(3-Carboxy-6-chloro-quinolin-2-ylamino)-3-phenyl-succinic acid] | – | 0.25 µM | 165 to 170 °C (dec.) |
| O=C(O)c1cc2cc(Cl)ccc2nc1Nc1ccc(CC(Nc2nc3ccc(Cl)cc3cc2C(=O)O)C(=O)O)cc1 (stereo not shown) [Example 59, 2-{1-Carboxy-2-[4-(3-carboxy-6-chloro-quinolin-2-ylamino)-phenyl]-ethylamino}-6-chloro-quinoline-3-carboxylic acid] | – | 0.64 µM | > 250 °C (dec.) |
| O=C(O)c1cc2cc(Br)ccc2nc1N[C@H](Cc1ccccc1)C(=O)O [Example 47, 6-Bromo-2-((R)-1-carboxy-2-phenyl-ethylamino)-quinoline-3-carboxylic acid] | – | 0.468 µM | 140 to 141 °C |
| O=C(O)c1cc2cc(Cl)ccc2nc1N[C@@H](Cc1ccc(Oc2ccnc3cc(Cl)ccc23)cc1)C(=O)O [Example 142, 2-{(S)-1-Carboxy-2-[4-(7-chloro-quinolin-4-yloxy)-phenyl]-ethylamino}-6-chloro-quinoline-3-carboxylic acid] | 1.44 µM | – | – |
| O=C(O)c1cc2cc(Cl)c(Cl)cc2nc1N[C@@H](Cc1ccccc1)C(=O)O [Example 32, 2-((S)-1-Carboxy-2-phenyl-ethylamino)-6,7-dichloro-quinoline-3-carboxylic acid] | 5.8 µM | – | – |
| O=C(O)c1cc2cc(Cl)ccc2nc1N[C@@H](Cc1ccc(Oc2ccc(Br)cn2)cc1)C(=O)O [Example 101, 2-{(S)-2-[4-(5-Bromo-pyridin-2-yloxy)-phenyl]-1-carboxy-ethylamino}-6-chloro-quinoline-3-carboxylic acid] | – | 0.42 µM | 145 to 150 °C |
| O=C(O)c1cc2cc(Cl)ccc2nc1N[C@@H](CC1CCCCC1)C(=O)O [Example 35, 2-((S)-1-Carboxy-2-cyclohexyl-ethylamino)-6-chloro-quinoline-3-carboxylic acid] | 3.3 µM | – | – |
| O=C(O)c1cc2cc(Cl)cc(Cl)c2nc1N[C@@H](Cc1c[nH]c2ccccc12)C(=O)O [Example 155, 2-[(S)-1-Carboxy-2-(1H-indol-3-yl)-ethylamino]-6,8-dichloro-quinoline-3-carboxylic acid] | 1.03 µM | – | – |
| N.N.O=C(O)c1cc2cc(Cl)ccc2nc1NC(Cc1ccccc1F)C(=O)O (stereo not shown) [Example 40, 2-[1-Carboxy-2-(2-fluoro-phenyl)-ethylamino]-6-chloro-quinoline-3-carboxylic acid ammonium salt] | – | 0.754 µM | 144 to 148 °C (dec.) |
| O=C(O)c1cc2cc(Cl)ccc2nc1N[C@@H](Cc1ccc(OCc2ccccc2)cc1)C(=O)O [Example 22, 2-[(S)-2-(4-Benzyloxy-phenyl)-1-carboxy-ethylamino]-6-chloro-quinoline-3-carboxylic acid] | 2.7 µM | – | – |
| O=C(O)c1cc2cc(Cl)ccc2nc1N[C@@H](Cc1ccc(O)cc1)C(=O)O [Example 34, 2-[(S)-1-Carboxy-2-(4-hydroxy-phenyl)-ethylamino]-6-chloro-quinoline-3-carboxylic acid] | – | 1.67 µM | – |
| Nc1cc(C[C@H](Nc2nc3ccc(Cl)cc3cc2C(=O)O)C(=O)O)ccc1Oc1nc2ccc(Cl)cc2cc1C(=O)O [Example 48, 2-{(S)-2-[3-Amino-4-(3-carboxy-6-chloro-quinolin-2-yloxy)-phenyl]-1-carboxy-ethylamino}-6-chloro-quinoline-3-carboxylic acid] | – | 0.68 µM | > 250 °C |
| O=C(O)c1cc2cc(Cl)ccc2nc1NC(Cc1ccc(Oc2nc3ccccc3cc2C(=O)O)cc1)C(=O)O (stereo not shown) [Example 110, 2-{1-Carboxy-2-[4-(3-carboxy-quinolin-2-yloxy)-phenyl]-ethylamino}-6-chloro-quinoline-3-carboxylic acid] | – | 0.38 µM | – |
